Experimental findings from ChEMBL document CHEMBL1255237, “Novel variant of the qnrB gene, qnrB12, in Citrobacter werkmanii” (2008) are described below.

Common to all, as to format: functional
In assay [1] the test system is Escherichia coli. Put plainly: Antimicrobial activity against Escherichia coli TOP10 harboring pCR-Blunt2-TOPO carrying qnrB12 gene of Citrobacter werkmanii isolate CIT2 by broth macrodilution method.
In assay [2] the test system is Escherichia coli. As to the kind of experiment: Antimicrobial activity against Escherichia coli TOP10 harboring pCR-Blunt2-TOPO carrying qnrB12 gene of Citrobacter werkmanii isolate CIT3 by broth macrodilution method.
The subject of assay [3] is Escherichia coli. Put plainly: Antimicrobial activity against Escherichia coli TOP10 by broth macrodilution method.
The subject of assay [4] is Escherichia coli. Put plainly: Antimicrobial activity against Escherichia coli TOP10 harboring empty vector pCR-Blunt2-TOPO by broth macrodilution method.
In assay [5] the test system is Citrobacter werkmanii. Put plainly: Antimicrobial activity against nalidixic acid-resistant Citrobacter werkmanii isolate CIT1 harboring gyrA Thr83Ile, parC Ser57Thr mutant gene and qnrB12 gene by broth macrodilution method.
The subject of assay [6] is Escherichia coli. As to the kind of experiment: Antimicrobial activity against Escherichia coli TOP10 harboring pCR-Blunt2-TOPO carrying qnrB12 gene of Citrobacter werkmanii isolate CIT1 by broth macrodilution method.
The test system of assay [7] is Citrobacter werkmanii. As to the kind of experiment: Antimicrobial activity against Citrobacter werkmanii isolate CIT2 harboring qnrB12 gene by broth macrodilution method.
Assay [8] relates to Citrobacter werkmanii. Put plainly: Antimicrobial activity against Citrobacter werkmanii isolate CIT3 harboring parC Leu88Gln mutant and qnrB12 gene by broth macrodilution method.
The subject of assay [9] is Escherichia coli. As to the kind of experiment: Antimicrobial activity against Escherichia coli TOP10 by broth macrodilution method in presence of 64 ug/ml Phe-Arg-beta-naphthylamide.
In assay [10] the test system is Escherichia coli. As to the kind of experiment: Antimicrobial activity against Escherichia coli TOP10 harboring pCR-Blunt2-TOPO carrying qnrB12 gene of Citrobacter werkmanii isolate CIT1 by broth macrodilution method in presence of 64 ug/ml Phe-Arg-beta-naphthylamide.
The test system of assay [11] is Escherichia coli. As to the kind of experiment: Antimicrobial activity against Escherichia coli TOP10 harboring empty vector pCR-Blunt2-TOPO by broth macrodilution method in presence of 64 ug/ml Phe-Arg-beta-naphthylamide.
The test system of assay [12] is Escherichia coli. Put plainly: Antimicrobial activity against Escherichia coli TOP10 harboring pCR-Blunt2-TOPO carrying qnrB12 gene of Citrobacter werkmanii isolate CIT2 by broth macrodilution method in presence of 64 ug/ml Phe-Arg-beta-naphthylamide.
The subject of assay [13] is Escherichia coli. As to the kind of experiment: Antimicrobial activity against Escherichia coli TOP10 harboring pCR-Blunt2-TOPO carrying qnrB12 gene of Citrobacter werkmanii isolate CIT3 by broth macrodilution method in presence of 64 ug/ml Phe-Arg-beta-naphthylamide.
Assay [14] concerns Citrobacter werkmanii. As to the kind of experiment: Antimicrobial activity against Citrobacter werkmanii isolate CIT2 harboring qnrB12 gene by broth macrodilution method in presence of 64 ug/ml Phe-Arg-beta-naphthylamide.
The test system of assay [15] is Citrobacter werkmanii. Put plainly: Antimicrobial activity against nalidixic acid-resistant Citrobacter werkmanii isolate CIT1 harboring gyrA Thr83Ile, parC Ser57Thr mutant gene and qnrB12 gene by broth macrodilution method in presence of 64 ug/ml Phe-Arg-beta-naphthylamide.
For assay [16], the system named is Citrobacter werkmanii. Put plainly: Antimicrobial activity against Citrobacter werkmanii isolate CIT3 harboring parC Leu88Gln mutant gene and qnrB12 gene by broth macrodilution method in presence of 64 ug/ml Phe-Arg-beta-naphthylamide.

Each structure is given as a SMILES string. ≈ marks a conversion by molar mass, not a printed value. Residues, ends and D or L forms follow the SMILES beside them. *: point of attachment. βNA = c1ccc2cc(N*)ccc2c1

The MIC is the smallest concentration in the dilution series that meets the test's criterion for growth inhibition. For the compound `N=C(N)NCCC[C@H](NC(=O)[C@@H](N)Cc1ccccc1)C(=O)Nc1ccc2ccccc2c1` [PABETAN] (H-Phe-Arg-βNA), the MIC against Escherichia coli [1], with Escherichia coli [2], against Escherichia coli [3], in the assay on Escherichia coli [4], with Citrobacter werkmanii [5] and in the assay with Escherichia coli [6] was over 256 µg/mL each time. Moreover, the MIC with Citrobacter werkmanii [7] and with Citrobacter werkmanii [8] was 256 µg/mL (≈ 573 µM) in each case.

Take `O=C(O)c1cn(C2CC2)c2cc(N3CCNCC3)c(F)cc2c1=O` [CIPROFLOXACIN]: the MIC came to 0.00195 µg/mL in the assay on Escherichia coli [9]; 0.0625 µg/mL with Escherichia coli [10]; 0.00195 µg/mL with Escherichia coli [11]; 0.0625 µg/mL (≈ 0.189 µM) in the assay with Escherichia coli [1]; 0.0625 µg/mL (≈ 0.189 µM) against Escherichia coli [2]; 0.00195 µg/mL (≈ 0.00589 µM) in the assay with Escherichia coli [3]. Besides, the minimal inhibitory concentration (MIC) is 0.00195 µg/mL (≈ 0.00589 µM) against Escherichia coli [4]; 1 µg/mL (≈ 3.02 µM) with Citrobacter werkmanii [5]; 0.0625 µg/mL with Escherichia coli [12]; 0.0625 µg/mL in the assay with Escherichia coli [13]; 0.0625 µg/mL (≈ 0.189 µM) against Escherichia coli [6]; 0.0312 µg/mL with Citrobacter werkmanii [14]. For the same compound, the MIC with Citrobacter werkmanii [15] stood at 0.25 µg/mL; in the assay with Citrobacter werkmanii [7], 0.5 µg/mL (≈ 1.51 µM); in the assay with Citrobacter werkmanii [16], 0.0312 µg/mL; in the assay with Citrobacter werkmanii [8] it was 0.0625 µg/mL (≈ 0.189 µM).

Turning to `CCn1cc(C(=O)O)c(=O)c2ccc(C)nc21` [NALIDIXIC ACID], the MIC in the assay with Escherichia coli [9] was found to be 0.25 µg/mL; in the assay with Escherichia coli [10], 1 µg/mL; in the assay with Escherichia coli [11] it was 0.25 µg/mL; with Escherichia coli [1], 8 µg/mL (≈ 34.4 µM); against Escherichia coli [2] it was 8 µg/mL (≈ 34.4 µM); against Escherichia coli [3], 2 µg/mL (≈ 8.61 µM). The MIC with Escherichia coli [4] is 2 µg/mL (≈ 8.61 µM); against Citrobacter werkmanii [5] it was over 256 µg/mL; in the assay on Escherichia coli [12], 1 µg/mL; in the assay with Escherichia coli [13], 1 µg/mL; against Escherichia coli [6], 8 µg/mL (≈ 34.4 µM); in the assay with Citrobacter werkmanii [14] it was 0.5 µg/mL. The minimum inhibitory concentration (MIC) was determined as 16 µg/mL with Citrobacter werkmanii [15], 8 µg/mL (≈ 34.4 µM) in the assay on Citrobacter werkmanii [7], 0.25 µg/mL in the assay on Citrobacter werkmanii [16] and 8 µg/mL (≈ 34.4 µM) against Citrobacter werkmanii [8].
